According to patent US20220370366A1, “TABLETS CONTAINING CILOFEXOR AND PHARMACEUTICALLY ACCEPTABLE CARRIERS” (Gilead Sciences, Inc., priority 2019, published 2022):

Tests used:
[1] = Single dose PK (AUCinf) in Phase 1 studies, effect of drug load on Compound 1 exposure and variability; format: in vivo, human; details: for AUC(0-inf): human, in vivo, oral, fasted, healthy volunteers, read-out: Mean (% CV) Compound 1 AUCinf
Source text: Part A: prespecified cohorts (Cohorts 1-3): Randomized, partially blind, placebo-controlled, single- and multiple-doses with staggered dose-escalations. 60 unique subjects; 15 per cohort (12 Compound 1, 3 placebo-to-match (“PTM”))
Part A (Single- and Multiple-Ascending Doses, Pre-Specified Cohorts) proceeded in 4 staggered, pre-specified, dose-escalation cohorts and were governed by study specific stopping criteria. Within each cohort, 15 unique subjects were randomized 4:1 to receive blinded Compound 1 (N=12) or PTM (N=3). All study drugs in Part A were administered in a fasted state. Within each cohort, dose escalation from single-dose (Period 1) to multiple-dose (Period 2) were permitted after evaluation of cumulative blinded safety data up to and through Day 3 of the same cohort.
Fasted State Dosing: Study drug(s) were administered at approximately the same time each day following an overnight fast (no food or drinks except water, for at least 10 hours). Subjects continued to fast until after collection of the 2-hour PK sample, relative to study drug dosing.
(§1) Treatment A: Single dose of SEL 18 mg (1×18 mg tablet)+Compound 1 30 mg (1×30 mg tablet) coadministered orally in the morning within 5 minutes of completing a high-fat meal Treatment C: Single dose of Compound 1 30 mg (1×30 mg tablet) administered orally in the morning in the fasted state
(§2) Fasted Administration (Treatment C): Study drug(s) were administered in the morning following an overnight fast (no food or drinks except water for at least 10 hours). Subjects continued to fast until after collection of the 4-hour PK sample, relative to (first) study drug dosing. Additionally, subjects were restricted from water consumption 1 hour before until 2 hours after each study drug dosing, except for the 240 mL given with each study drug administration. Water may be consumed by subjects following the 2-hour blood draw for the remainder of the collection period. A meal (standardized lunch) was provided to subjects after the 4 hour postdose blood draw.
Eligible subjects received the following treatment: Single dose of 100 mg Compound 1 (1×100 mg tablet), administered orally in the morning on Day 1 following an overnight fast.
Each dose of study drug was administered in the morning on Day 1 with 240 mL of still (non-carbonated) water following an overnight fast (no food or drinks except water, for at least 10 hours). Subjects continued to fast and were restricted from food intake until after collection of the 4-hour blood draw. Additionally, subjects were restricted from consumption of water or other fluids 1 hour before until 2 hours after dosing, except for the 240 mL given with the study treatment.
Cohort 10 (Compound 1 100 mg, formulation 9 in Table 3):
Treatment F: Single dose of Compound 1 (1×100 mg tablet) administered orally in the morning in the fasted state.
(§3) Compound 1 was administered in the morning following an overnight fast (no food or drinks except water for at least 10 hours). Subjects continued to fast until after collection of the 4-hour PK sample, relative to the (first) study drug dosing. Additionally, subjects were restricted from water consumption 1 hour before until 2 hours after each study drug dosing, except for the 240 mL given with each study drug administration. Water was optionally consumed by subjects following the 2-hour blood draw for the remainder of the collection period. A meal (standardized lunch) is provided to subjects after the 4-hour post-dose blood draw.
Single dose pharmacokinetic exposure parameters (AUCinf) of Compound 1 from multiple Phase 1 studies in healthy volunteers which utilized various drug loads of Compound 1 were compared to determine if Compound 1 drug load impacted the variability and/or absolute value of Compound 1 systemic exposure.

[2] = Single dose PK (AUCinf) in Phase 1 studies, effect of meal type on Compound 1 exposure and variability; format: in vivo, human; details: for AUC(0-inf): human, in vivo, oral
Description: Part B (Adaptive Cohorts) is as follows: Based on available safety, pharmacokinetic (“PK”), and/or pharmacodynamic (“PD”) data from Part A, total daily doses for Part B (Cohorts 5 and 8) were chosen between 1 and 600 mg as well as frequency of dosing (once daily or twice a day) and meal conditions for dosing (fasted, low fat, moderate fat, or high fat meal). Once determined, dose level, frequency of dosing, and meal conditions were consistent within a cohort.
Fed State Dosing: Study drug(s) were administered at approximately the same time each day and within 5 minutes of completing a standardized meal. The meal was initiated 30 minutes prior to study drug administration. Subjects fasted until after collection of the 4-hour PK sample, relative to study drug dosing. Meal fat content (low fat, moderate fat, or high fat) was determined based on available data from […] cohorts.
as §1
Treatment I: Single dose of Compound 1 30 mg (1×30 mg tablet) administered orally in the morning within 5 minutes of completing a light meal
as §2
Light Meal Administration (Treatment I): Study drug(s) were administered with food and with 240 mL of water. Following an overnight fast (no food or drinks except water for at least 10 hours), a meal was initiated 30 minutes prior to study drug administration. The dose was administered at or within 5 minutes of the subjects completing (100%) of the provided light meal containing ˜400 kcal with ˜20% of the calories from fat. Subjects fasted for 4 hours after study drug administration. A meal (standardized lunch) was provided to subjects after the 4-hour post-dose blood draw. Additionally, water and other fluids was withheld 1 hour before until 2-hours after dose administration other than the water provided with dosing and beverages provided with the standardized meal (where applicable). Water may be consumed by subjects following the 2-hour blood draw for the remainder of the collection period.
High-Fat Meal Administration (Treatment A): Study drug(s) were administered with food and with 240 mL of water. Following an overnight fast (no food or drinks except water for at least 10 hours), a meal was initiated 30 minutes prior to study drug administration. The dose was administered at or within 5 minutes of the subjects completing (100%) of the provided high-fat meal containing ˜800-1000 kcal with -50% of calories from fat (approximately 150, 250, and 500-600 kcal from protein, carbohydrate, and fat, respectively). Subjects fasted for 4 hours after study drug administration. A meal (standardized lunch) was provided to subjects after the 4-hour post-dose blood draw. Additionally, water and other fluids was withheld 1 hour before until 2 hours after dose administration other than the water provided with dosing and beverages provided with the standardized meal (where applicable). Water may be consumed by subjects following the 2-hour blood draw for the remainder of the collection period.
Cohort 10 (Compound 1 100 mg, formulation 9 in Table 3): […]

[3] = Effect of acid-reducing agent (famotidine) on PK of Compound 1 single agent tablet, Cohort 11; format: in vivo, human; details: for AUC(0-inf): human, in vivo, oral, fasted, N=20
Description: The objective of Cohort 11 was to assess the effect of gastric acid reducing agents (ARAs) on the PK of Compound 1 single agent tablet using famotidine, a representative H2RA. Compound 1 100 mg strength tablets (as free form equivalent) were used. Famotidine was obtained from a commercially available source.
Treatment J: Single dose of Compound 1 (1×100 mg tablet) administered orally in the morning in the fasted state.
Treatment K: Single dose of Compound 1 (1×100 mg tablet) administered orally in the morning 2 hours after famotidine (FAM) (1×40 mg) in the fasted state.
as §3, with “Study drug(s) were” for “Compound 1 was”, “period.” for “period. A meal (standardized lunch) is provided to subjects after the 4-hour post-dose blood draw.”

[4] = in the drug product, Form I
[5] = drug loads such as 5% and 8% compared to 20% drug load

In the case of `O=C(O)c1ccnc(N2CC(O)(c3ccc(OCc4c(-c5c(Cl)cccc5Cl)noc4C4CC4)cc3Cl)C2)c1` [Compound 1, cilofexor], the “Compound 1 exposure” value [1, 5] was “increased Compound 1 exposure”, the “Variability of Compound 1 exposure” value [1, 5] was “reduction in variability” and the AUC(0-inf) ([1]; 30 mg, 30 mg single dose, 5% drug load) was 2470 ng·h/mL. For the same compound, the AUC(0-inf) ([1]; 30 mg, 30 mg single dose, 20% drug load) was 1870 ng·h/mL, the AUC(0-inf) ([1]; 100 mg, 100 mg single dose, 8% drug load) was 7480 ng·h/mL and the AUC(0-inf) ([1]; 100 mg, 100 mg single dose, 12% drug load) was 7650 ng·h/mL. The AUC(0-inf) ([1]; 100 mg, 100 mg single dose, 20% drug load) was 7740 ng·h/mL, the “% GLSM Ratio (90% CI)” value ([2]; 10 mg (5% drug load), AUCinf moderate-fat meal vs fasted) was 74.9% and the “% GLSM Ratio (90% CI)” value ([2]; 30 mg (20% drug load), AUCinf high-fat meal (+ SEL 18 mg) vs fasted) was 142%. The “% GLSM Ratio (90% CI)” value ([2]; 30 mg (20% drug load), AUCinf light-fat meal vs fasted) was 37.5%, the “% GLSM Ratio (90% CI)” value ([2]; 100 mg (12% drug load), AUCinf high-fat meal vs fasted) was 91.9% and the “% GLSM Ratio (90% CI)” value ([2]; 100 mg (12% drug load), AUCinf light-fat meal vs fasted) was 65.7%. The “% GLSM Ratio (90% CI)” value ([2]; 100 mg (20% drug load), AUCinf moderate-fat meal vs fasted) was 76.6%, the “Effect of food on Compound 1 exposure” value ([2]; high-fat meal) was “increasing” and the AUC(0-inf) ([2]; 10 mg, 10 mg (5% drug load), fasted, N=12, read-out: Compound 1 AUCinf (% CV) Fasted) was 1260 ng·h/mL. The AUC(0-inf) ([2]; 10 mg, 10 mg (5% drug load), moderate-fat meal, N=11, read-out: Compound 1 AUCinf (% CV) Fed) was 924 ng·h/mL, the AUC(0-inf) ([2]; 30 mg (20% drug load), high-fat meal, + SEL 18 mg, N=20, read-out: Compound 1 AUCinf (% CV) Fed) was 1920 ng·h/mL and the AUC(0-inf) ([2]; 30 mg, 30 mg (20% drug load), fasted, N=20, read-out: Compound 1 AUCinf (% CV) Fasted) was 1870 ng·h/mL. For the same compound, the AUC(0-inf) ([2]; 30 mg, 30 mg (20% drug load), light-fat meal, N=30, read-out: Compound 1 AUCinf (% CV) Fed) was 608 ng·h/mL, the AUC(0-inf) ([2]; 100 mg, 100 mg (12% drug load), fasted, N=20, read-out: Compound 1 AUCinf (% CV) Fasted) was 7650 ng·h/mL and the AUC(0-inf) ([2]; 100 mg, 100 mg (12% drug load), high-fat meal, N=20, read-out: Compound 1 AUCinf (% CV) Fed) was 5930 ng·h/mL. The AUC(0-inf) ([2]; 100 mg, 100 mg (12% drug load), light-fat meal, N=20, read-out: Compound 1 AUCinf (% CV) Fed) was 4170 ng·h/mL, the AUC(0-inf) ([2]; 100 mg, 100 mg (20% drug load), fasted, N=12, read-out: Compound 1 AUCinf (% CV) Fasted) was 7740 ng·h/mL and the AUC(0-inf) ([2]; 100 mg, 100 mg (20% drug load), moderate-fat meal, N=12, read-out: Compound 1 AUCinf (% CV) Fed) was 5020 ng·h/mL. The “Effect of food on Compound 1 exposure” value ([2]; light-fat and moderate-fat meals) was “reducing”, the “Variability of Compound 1 exposure” value ([2]; light-fat meal) was “did not reduce variability” and the “Variability of Compound 1 exposure” value ([2]; moderate- and high-fat meals compared to fasted administration, irrespective of % drug load) was “reduced the variability”. For the same compound, the “Paired comparison of Compound 1 exposure, percent change with high-fat meal” value ([2]; subjects with low exposure fasted or with light-fat meal vs subjects with high exposure) was “greater percent increases in exposure”, the “% GLSM Ratio (90% CI)” value ([3]; 100 mg (12% drug load), AUCinf with famotidine vs alone) was 320 (263, 390) % and the “Bioavailability of Compound 1 with famotidine pre-treatment” value ([3]; administered two hours after famotidine, 12% drug load) was “increase in bioavailability”. It also gave an AUC(0-inf) ([3]; 100 mg (12% drug load), 2 hours after famotidine 40 mg, read-out: Compound 1 AUCinf (% CV) with Famotidine (Test)) of 13600 ng·h/mL and an AUC(0-inf) ([3]; 100 mg (12% drug load), read-out: Compound 1 AUCinf (% CV) Alone (Reference)) of 4490 ng·h/mL.
For `NC(CO)(CO)CO.O=C(O)c1ccnc(N2CC(O)(c3ccc(OCc4c(-c5c(Cl)cccc5Cl)noc4C4CC4)cc3Cl)C2)c1` [tromethamine salt of Compound 1], the “Chemical and physical stability” value [4] was “suitable chemical and physical stability”.
